The subject of assay [1] is iNOS. Description: Expression of iNOS stimulated by LPS in macrophage cell, Western blotting. In kind it is cell-based. Particulars: LPS 1 μg/ml; 10, 50, 100 μM; FIG. 1. As to the method:
Macrophage cells (RAW 264.7 cell) were plated on 100 mm culture dishes at a density of 1-2×10^5 cells and incubated in DMEM medium containing 10% fetal calf serum (heat-inactivated), 100 U/ml penicillin, and […] streptomycin in a CO2 incubator. When being grown to complete confluence, macrophage cell was inoculated in serum-free DMEM medium, and further incubated for about 24 hours. Thereafter, macrophage cells were stimulated in the presence of LPS (1 μg/ml) and each of the compounds represented by the formulas 3 to 8 for about 12 hours. Total protein was isolated from the macrophage cells. The isolated protein was quantified by using Bradford method. 10 μg of isolated protein was loaded in SDS-PAGE electroporesis gel. The said gel was transferred to PVDF membrane. Anti-iNOS antibody was added to the said gel, thereafter disposed at 4° C. overnight. Thereafter, secondary antibody was added to the said gel, reacted for 1 hour at the room temperature and sensitized using ECL. Expression of protein was quantified, compared to the expressed Actin.

Assay [2] deals with rat PRP. The assay can be described thus: Inhibition of platelet aggregation in rat PRP. Particulars: for IC50: Platelet, rat PRP; for inhibitory effect on epinephrine-induced platelet aggregation, times as strong as R-enantiomer: S versus R; for inhibitory effect on epinephrine-induced platelet aggregation, times as strong as racemic mixture: S versus racemic mixture; for inhibition of platelet aggregation induced by ADP: even at the concentration as high as 1×10^−3 M. In kind it is cell-based. As to the method: Male rat (weighing 200±20 g) was anaesthetized with ether. The blood (nine volumes) was collected from heart using a plastic syringe containing 2.2% sodium citrate (one volume). The collected blood was centrifuged at 200×g for 10 minutes to give supernatant platelet-rich plasma (PRP). The residue was centrifuged again at 700×g for 30 minutes, giving platelet-poor plasma (PPP) for experiment. We used a platelet analyzer to count the number of platelet of the PRP. PRP was diluted with physiological saline solution to prepare solution containing platelets in an amount of 400-450×10^6/ml. The inhibitory effects of the compound represented by formulas 3 to 8 was evaluated by platelet aggregation analyzer, and the inhibitory effect of each compound is given as % below. That is, after PRP was incubated for 3 minutes at 37° C., the compounds or a carrier was added thereto, and after 1 min, platelet aggregation-inducing agent such as ADP, collagen, arachidonic acid (AA), U46619 or epinephrine was added thereto, followed by investigation of turbidity caused by aggregation of platelets. % Inhibition=A−B/A×100 [arithmetic formula 1] • (A: Platelet aggregation rate in group treated with an aggregation-inducing agent; • B: Platelet aggregation rate in group treated with both an aggregation-inducing agent and the enantiomers simultaneously)

Assay [3] concerns LPS-injected rat. Description: Serum/plasma level of nitrate/nitrite (NOx) in LPS-injected rat. In kind it is in vivo. As to conditions: 10 mg/kg compound; LPS 20 mg/kg. As to the method: The rats were divided into three groups; (1) LPS-injected group (LPS was administered to abdominal cavity in an amount of 20 mg/kg), (2) enantiomer-injected group (LPS+the compounds represented by formula 3 to 8 was administered to abdominal cavity) or (3) saline solution-injected group. After administration of LPS, the rats were anaesthetized with pentobarbital. The blood was collected from rats by using heart punching. The plasma level of nitrite was measured by using the nitrate reductase derived from Aspergillus species, where the nitrate was reduced by enzyme. Particularly, the plasma was diluted with distilled water in a ratio of 1:10. Analysis buffering solution (KH2PO4 50 Mm, NADPH 0.6 Mm, FAD 5 Mm and nitrate reductase 10 U/ml, Ph 5.5) was added to the said plasma. Thereafter, the reaction was accomplished at 37° C. for 30 min. The plasma level of nitrite was measured by using sodium nitrite as a standard, and Griess solution. Standard curve to nitrite was calculated from the result derived from incubation in analysis buffering solution.

[4] abbreviates: ADP 2 − 5 × 10^−6 M, read-out: IC50 platelet aggregation, ADP.
The mark [5] stands for this setting: U46619 1.5 × 10^−6 M with threshold collagen, read-out: IC50 platelet aggregation, U46619.
Setting [6] is: arachidonic acid 1 − 4 × 10^−5 M with threshold collagen, read-out: IC50 platelet aggregation, AA.
Where [7] appears, read: collagen 2 − 5 × 10^−6 g/ml, read-out: IC50 platelet aggregation, collagen.
Where [8] appears, read: epinephrine 1 − 4 × 10^−6 M with threshold collagen, read-out: IC50 platelet aggregation, Epinephrine.

Where two headings read alike, the source gives them in different places.

The IC50 is the concentration needed to halve the response being measured.

With `Oc1ccc(C[C@@H]2NCCc3cc(O)c(O)cc32)cc1` [Formula 3, (S)-6,7-Dihydroxy-1-(p-hydroxyphenylmethyl)-1,2,3,4-tetrahydroisoquinoline], the “expression of iNOS protein” value in assay [1] is on record as “inhibited expression of iNOS protein strongly than R-enantiomer”. The concentration for half-maximal inhibition (IC50) in assay [2] (setting [4]) is over 1000 µM; in assay [2] (setting [5]) it was 25 µM; in assay [2] (setting [6]), 9.1 µM; in assay [2] (setting [7]), 450 µM; in assay [2] (setting [8]) it was 1.6 µM. In assay [2], the “inhibitory effect on epinephrine-induced platelet aggregation, times as strong as R-enantiomer” value (from here on “inhibitory effect … as R-enantiomer”) was “about nine times as strong”. Besides, the “inhibitory effect on epinephrine-induced platelet aggregation, times as strong as racemic mixture” value (from here on “inhibitory effect … as racemic mixture”) in assay [2] was “about five times as strong”. The “inhibition of platelet aggregation induced by ADP” value in assay [2] is given as “did not inhibit”. The “plasma level of NOx” value in assay [3] was determined as 29 ± 3 µM.

Turning to `Oc1ccc(C[C@H]2NCCc3cc(O)c(O)cc32)cc1` [Formula 4, (R)-6,7-Dihydroxy-1-(p-hydroxyphenylmethyl)-1,2,3,4-tetrahydroisoquinoline], the IC50 in assay [2] (setting [4]) was at least 1000 µM; in assay [2] (setting [5]), 15 µM; in assay [2] (setting [6]) it was 11 µM; in assay [2] (setting [7]), 300 µM; in assay [2] (setting [8]), 14 µM. In assay [2], the “inhibition of platelet aggregation induced by ADP” value is “did not inhibit”. Moreover, the “plasma level of NOx” value in assay [3] stood at 85 ± 7 µM.

In the case of `Oc1cc2c(cc1O)[C@H](Cc1cccc3ccccc13)NCC2` [Formula 5], the “expression of iNOS protein” value in assay [1] is recorded as “inhibited expression of iNOS protein strongly than R-enantiomer”. For the same compound, the half-maximal inhibitory concentration (IC50) came to 240 µM in assay [2] (setting [4]); 16 µM in assay [2] (setting [5]); 5.6 µM in assay [2] (setting [6]); 69 µM in assay [2] (setting [7]); 0.38 µM in assay [2] (setting [8]). Also, the “inhibitory effect … as R-enantiomer” value in assay [2] is listed as “about six times as strong”. For the same compound, the “inhibitory effect … as racemic mixture” value in assay [2] is “about five times as strong”.

With `Oc1cc2c(cc1O)[C@@H](Cc1cccc3ccccc13)NCC2` [Formula 6, (R)-6,7-Dihydroxy-1-(α-naphthylmethyl)-1,2,3,4-tetrahydroisoquinoline], the IC50 was determined as 540 µM in assay [2] (setting [4]); 20 µM in assay [2] (setting [5]); 11 µM in assay [2] (setting [6]); 140 µM in assay [2] (setting [7]); 2.4 µM in assay [2] (setting [8]).

On to `Oc1cc2c(cc1O)[C@H](Cc1ccc3ccccc3c1)NCC2` [Formula 7, (S)-6,7-Dihydroxy-1-(β-naphthylmethyl)-1,2,3,4-tetrahydroisoquinoline], for which the “expression of iNOS protein” value in assay [1] is “inhibited expression of iNOS protein strongly than R-enantiomer”. In addition, the IC50 in assay [2] (setting [4]) turned out to be 460 µM; in assay [2] (setting [5]), 61 µM; in assay [2] (setting [6]), 62 µM; in assay [2] (setting [7]), 150 µM; in assay [2] (setting [8]), 0.9 µM. Further, the “inhibitory effect … as R-enantiomer” value in assay [2] is reported as “about seventeen times as strong”. In addition, the “inhibitory effect … as racemic mixture” value in assay [2] is listed as “about five times as strong”.

`Oc1cc2c(cc1O)[C@@H](Cc1ccc3ccccc3c1)NCC2` [Formula 8, (R)-6,7-Dihydroxy-1-(β-naphthylmethyl)-1,2,3,4-tetrahydroisoquinoline]: the IC50 in assay [2] (setting [4]) was 540 µM; in assay [2] (setting [5]) it was 49 µM; in assay [2] (setting [6]), 7.9 µM; in assay [2] (setting [7]), 150 µM; in assay [2] (setting [8]) it was 15 µM.

The record behind these values is patent publication US20060058346A1, “Novel enantiomers of etrahydroisoquinoline derivatives and theirpharmaceutically acceptable salts, their preparations and pharmaceutical compositions” (priority 2002, published 2006).
